According to patent publication US7709471B2, “Compounds” (AstraZeneca AB, priority 2006, dated 2010):
Structures can show the parent of a compound that is named as a salt.

How the values were obtained:
recombinant Plk1 = recombinant Plk1 (Homo sapiens, UniProt P53350); assay: In Vitro Plk1 Enzyme Assay (SPA, GST-Cdc25C phosphorylation); format: biochemical; conditions: ATP 64 nM, 90 minutes, read-out: IC50 (Plk1 enzyme inhibition)
[1] = test system: human colon tumour cell line HT29; assay: Cellular Assay (phosphohistone H3 Ser10 mitotic marker, HT29); format: cell-based; conditions: HT-29, 24 h, HT29 cells, read-out: IC50 (cellular assay, phosphohistone H3)

Sequence of recombinant Plk1 (P53350 whole entry): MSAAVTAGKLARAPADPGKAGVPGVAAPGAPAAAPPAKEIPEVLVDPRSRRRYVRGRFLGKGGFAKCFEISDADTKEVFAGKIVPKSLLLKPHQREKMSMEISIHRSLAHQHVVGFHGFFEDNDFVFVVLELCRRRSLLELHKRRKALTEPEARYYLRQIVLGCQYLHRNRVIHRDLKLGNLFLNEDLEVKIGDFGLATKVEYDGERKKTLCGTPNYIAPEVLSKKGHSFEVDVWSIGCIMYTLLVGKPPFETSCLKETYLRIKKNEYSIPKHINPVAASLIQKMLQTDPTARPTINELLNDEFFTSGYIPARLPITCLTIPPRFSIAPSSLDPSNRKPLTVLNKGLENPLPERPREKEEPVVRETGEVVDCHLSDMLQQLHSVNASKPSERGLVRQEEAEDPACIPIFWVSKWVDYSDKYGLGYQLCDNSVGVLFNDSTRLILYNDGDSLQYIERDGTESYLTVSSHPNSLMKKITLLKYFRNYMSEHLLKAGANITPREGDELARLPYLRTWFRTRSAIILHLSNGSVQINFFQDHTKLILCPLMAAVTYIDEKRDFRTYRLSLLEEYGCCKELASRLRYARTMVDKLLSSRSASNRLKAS

Compound | IC50 (recombinant Plk1) [nM] | IC50 [1] [nM]
COc1cc(OCCN2CCOCC2)ccc1Nc1ncc2c(n1)N(C1CCCC1)CCC(=O)N2C [Example 115, 6-cyclopentyl-9-[[2-methoxy-4-(2-morpholin-4-ylethoxy)phenyl]amino]-2-methyl-2,6,8,10-tetrazabicyclo[5.4.0]undeca-8,10,12-trien-3-one] | < 1000 | < 30000
COc1cc(C(=O)NC2C[C@H]3CCC[C@@H](C2)N3C)ccc1Nc1ncc2c(n1)N(C1CCCC1)CC1(CC1)C(=O)N2C (stereo partly drawn) [Example 385, 4-(9′-cyclopentyl-5′-methyl-6′-oxo-5′,6′,8′,9′-tetrahydrospiro[cyclopropane-1,7′-pyrimido[5,4-b][1,4]diazepine]-2′-ylamino)-3-methoxy-N-[(1S,5R)-9-methyl-9-azabicyclo[3.3.1]non-7-yl]benzamide] | < 300 | < 300
COc1cc(C(=O)NCCCCN2CCCC2)ccc1Nc1ncc2c(n1)N(C(C)C)CCC(=O)N2C [Example 209, 3-methoxy-4-[(2-methyl-3-oxo-6-propan-2-yl-2,6,8,10-tetrazabicyclo[5.4.0]undeca-7,9,11-trien-9-yl)amino]-N-(4-pyrrolidin-1-ylbutyl)benzamide] | < 300 | < 300
CN1CCC(NC(=O)c2c(F)cc(Nc3ncc4c(n3)N(C3CCCC3)CCC(=O)N4C)cc2F)CC1 [Example 187, 4-[(6-cyclopentyl-2-methyl-3-oxo-2,6,8,10-tetrazabicyclo[5.4.0]undeca-8,10,12-trien-9-yl)amino]-2,6-difluoro-N-(1-methyl-4-piperidyl)benzamide] | < 100000 | < 30000
COc1cc(C(=O)NCC(C)(C)CN(C)C)ccc1Nc1ncc2c(n1)N(C1CCCC1)CCC(=O)N2C [Example 10, 4-[(2-Cyclopentyl-6-methyl-5-oxo-2,6,9,11-tetrazabicyclo[5.4.0]undeca-8,10,12-trien-10-yl)amino]-N-(3-dimethylamino-2,2-dimethyl-propyl)-3-methoxy-benzamide hydrochloride] | < 300 | < 300
COCCN1CC[C@@H](NC(=O)c2ccc(Nc3ncc4c(n3)N(C3CCCC3)CCC(=O)N4C)c(OC)c2)C1 [Example 328, 4-[(2-cyclopentyl-6-methyl-5-oxo-2,6,9,11-tetrazabicyclo[5.4.0]undeca-7,9,11-trien-10-yl)amino]-3-methoxy-N-[(3R)-1-(2-methoxyethyl)pyrrolidin-3-yl]benzamide] | < 300 | < 300
COc1cc(C(=O)NCCN2CCOCC2)ccc1Nc1ncc2c(n1)N(C(C)C)CCC(=O)N2C [Example 219, 3-methoxy-4-[(2-methyl-3-oxo-6-propan-2-yl-2,6,8,10-tetrazabicyclo[5.4.0]undeca-7,9,11-trien-9-yl)amino]-N-(2-morpholin-4-ylethyl)benzamide] | < 300 | < 1000
COc1cc(C(=O)NCCCCn2ccnc2)ccc1Nc1ncc2c(n1)N(C1CCCC1)CCC(=O)N2C [Example 31, 4-[(6-cyclopentyl-2-methyl-3-oxo-2,6,8,10-tetrazabicyclo[5.4.0]undeca-8,10,12-trien-9-yl)amino]-N-(4-imidazol-1-ylbutyl)-3-methoxy-benzamide] | < 1000 | < 300
CC(=O)Nc1cccc(Nc2ncc3c(n2)N(C2CCCC2)CCC(=O)N3C)c1 [Example 177, N-[3-[(6-cyclopentyl-2-methyl-3-oxo-2,6,8,10-tetrazabicyclo[5.4.0]undeca-8,10,12-trien-9-yl)amino]phenyl]acetamide] | < 100000 | < 30000
COc1cc(C(=O)NC2CCN(C)CC2)ccc1Nc1ncc2c(n1)N(C)CCC(=O)N2C [Example 5, 4-[(2,6-Dimethyl-5-oxo-2,6,9,11-tetrazabicyclo[5.4.0]undeca-7,9,11-trien-10-yl)amino]-3-methoxy-N-(1-methyl-4-piperidyl)benzamide] | < 300 | < 30000
CN1CCC(NC(=O)c2cc(Cl)c(Nc3ncc4c(n3)N(C3CCCC3)CCC(=O)N4C)cc2F)CC1 [Example 322, 5-chloro-4-[(2-cyclopentyl-6-methyl-5-oxo-2,6,9,11-tetrazabicyclo[5.4.0]undeca-7,9,11-trien-10-yl)amino]-2-fluoro-N-(1-methyl-4-piperidyl)benzamide] | < 300 | < 300
CN1CCC(NC(=O)c2ccc(Nc3ncc4c(n3)N(C3CCCC3)CCC(=O)N4C)nc2)CC1 [Example 269, 6-[(6-cyclopentyl-2-methyl-3-oxo-2,6,8,10-tetrazabicyclo[5.4.0]undeca-8,10,12-trien-9-yl)amino]-N-(1-methyl-4-piperidyl)pyridine-3-carboxamide] | < 300 | < 1000

Second part, the molecule after the results:

IC50 (recombinant Plk1) [nM] | IC50 [1] [nM] | Compound
< 300 | < 300 | COc1cc(C(=O)NC(C)CN2CCCCC2)ccc1Nc1ncc2c(n1)N(C1CCCC1)CCC(=O)N2C (stereo not shown) [Example 73, 4-[(6-cyclopentyl-2-methyl-3-oxo-2,6,8,10-tetrazabicyclo[5.4.0]undeca-8,10,12-trien-9-yl)amino]-3-methoxy-N-[1-(1-piperidyl)propan-2-yl]benzamide]
< 1000 | < 30000 | CN1C(=O)CCN(C2CCCC2)c2nc(Nc3ccc(Cl)c(CO)c3)ncc21 [Example 131, 9-[[4-chloro-3-(hydroxymethyl)phenyl]amino]-6-cyclopentyl-2-methyl-2,6,8,10-tetrazabicyclo[5.4.0]undeca-8,10,12-trien-3-one]
< 1000 | < 300 | COc1cc(C(=O)NCCN2CCC(F)(F)CC2)ccc1Nc1ncc2c(n1)N(C1CCCC1)CCC(=O)N2C [Example 37, 4-[(6-cyclopentyl-2-methyl-3-oxo-2,6,8,10-tetrazabicyclo[5.4.0]undeca-8,10,12-trien-9-yl)amino]-N-[2-(4,4-difluoro-1-piperidyl)ethyl]-3-methoxy-benzamide]
< 1000 | < 30000 | CC(=O)N1CCN(c2ccc(Nc3ncc4c(n3)N(C3CCCC3)CCC(=O)N4C)cc2)CC1 [Example 128, 9-[[4-(4-acetylpiperazin-1-yl)phenyl]amino]-6-cyclopentyl-2-methyl-2,6,8,10-tetrazabicyclo[5.4.0]undeca-8,10,12-trien-3-one]
< 1000 | < 30000 | COc1cc(C(=O)NC2CCN(C)CC2)ccc1Nc1ncc2c(n1)N(Cc1ccccc1)CCC(=O)N2C [Example 215, 4-[(6-benzyl-2-methyl-3-oxo-2,6,8,10-tetrazabicyclo[5.4.0]undeca-8,10,12-trien-9-yl)amino]-3-methoxy-N-(1-methyl-4-piperidyl)benzamide]
< 100000 | < 30000 | CN(C)CC(C)(C)CNC(=O)c1ccc(Nc2ncc3c(n2)N(C2CCCC2)CCC(=O)N3)cc1 [Example 253, 4-[(6-cyclopentyl-3-oxo-2,6,8,10-tetrazabicyclo[5.4.0]undeca-8,10,12-trien-9-yl)amino]-N-(3-dimethylamino-2,2-dimethyl-propyl)benzamide]
< 100000 | < 300 | COc1cc(C(=O)NCC2CC2)ccc1Nc1ncc2c(n1)N(C1CCCC1)CCC(=O)N2C [Example 94, 4-[(6-cyclopentyl-2-methyl-3-oxo-2,6,8,10-tetrazabicyclo[5.4.0]undeca-8,10,12-trien-9-yl)amino]-N-(cyclopropylmethyl)-3-methoxy-benzamide]
< 100000 | < 30000 | CN1C(=O)CCN(C2CCCC2)c2nc(Nc3cccc(OCCN4CCOCC4)c3)ncc21 [Example 180, 6-cyclopentyl-2-methyl-9-[[3-(2-morpholin-4-ylethoxy)phenyl]amino]-2,6,8,10-tetrazabicyclo[5.4.0]undeca-8,10,12-trien-3-one]
< 300 | < 300 | CCN1CCC(NC(=O)c2ccc(Nc3ncc4c(n3)N(C3CCCC3)CC3(CC3)C(=O)N4C)c(Cl)c2)CC1 [Example 382, 3-chloro-4-(9′-cyclopentyl-5′-methyl-6′-oxo-5′,6′,8′,9′-tetrahydrospiro[cyclopropane-1,7′-pyrimido[5,4-b][1,4]diazepine]-2′-ylamino)-N-(1-ethylpiperidin-4-yl)benzamide]
< 300 | < 300 | CCN(CC)CCNC(=O)c1ccc(Nc2ncc3c(n2)N(C2CCCC2)CCC(=O)N3C)c(OC)c1 [Example 18, 4-[(6-cyclopentyl-2-methyl-3-oxo-2,6,8,10-tetrazabicyclo[5.4.0]undeca-8,10,12-trien-9-yl)amino]-N-(2-diethylaminoethyl)-3-methoxy-benzamide]
< 300 | < 300 | CCN1CCCC1CNC(=O)c1ccc(Nc2ncc3c(n2)N(C2CCCC2)CCC(=O)N3C)c(OC)c1 (stereo not shown) [Example 15, 4-[(6-cyclopentyl-2-methyl-3-oxo-2,6,8,10-tetrazabicyclo[5.4.0]undeca-8,10,12-trien-9-yl)amino]-N-[(1-ethylpyrrolidin-2-yl)methyl]-3-methoxy-benzamide]
< 300 | < 300 | COc1cc(C(=O)NCC(C)(C)CN(C)C)ccc1Nc1ncc2c(n1)N(C(C)C)CCC(=O)N2C [Example 208, N-(3-dimethylamino-2,2-dimethyl-propyl)-3-methoxy-4-[(2-methyl-3-oxo-6-propan-2-yl-2,6,8,10-tetrazabicyclo[5.4.0]undeca-7,9,11-trien-9-yl)amino]benzamide]
< 300 | < 300 | COc1cc(C(=O)NC2CC(C)(C)N(C)C(C)(C)C2)ccc1Nc1ncc2c(n1)N(C1CCCC1)CCC(=O)N2C [Example 72, 4-[(6-cyclopentyl-2-methyl-3-oxo-2,6,8,10-tetrazabicyclo[5.4.0]undeca-8,10,12-trien-9-yl)amino]-3-methoxy-N-(1,2,2,6,6-pentamethyl-4-piperidyl)benzamide]
< 1000 | < 300 | COc1cc(C(=O)NC2CCCN(C)C2)ccc1Nc1ncc2c(n1)N(C1CCCC1)CC(C)(C)C(=O)N2C (stereo not shown) [Example 243, 4-[(2-cyclopentyl-4,4,6-trimethyl-5-oxo-2,6,9,11-tetrazabicyclo[5.4.0]undeca-7,9,11-trien-10-yl)amino]-3-methoxy-N-(1-methyl-3-piperidyl)benzamide]
